Source: patent EP0300390A1, “Trifluoromethyl-alkoxy-anilin, process for their preparation and their use in the ice-colour technique” (HOECHST AKTIENGESELLSCHAFT, priority 1987, dated 1989)

Assay: AMES test (mutagenicity)
Type: cell-based

CCCCOc1ccc(C(F)(F)F)cc1N [5-Trifluormethyl-2-n-butoxy-anilin]
AMES-Test: nicht-mutagen
